From paper PMC6706398 (Scientific Reports, 2019)
“And” between values parts separate entries of the source, which are not always exact repeats. Identical values can stand only once. Like-named read-outs stand apart in the source and are kept apart here.

What was measured:
[1] = biological target: wild-type CT holotoxin (cCT) (Vibrio cholerae, UniProt Q57193); experiment: biochemical; format: binding
CT [2] = details: cited from earlier work
[3] = system: CTB binding to jejunal epithelial cells; details: cited from earlier work
CT [4] = details: cited from earlier work; remark: listed apart in the source
[5] = system: CTB binding in cell culture (intestinal epithelial cells); details: cited from earlier work

CC(=O)N[C@H]1[C@H](O[C@@H]2[C@H](O[C@]3(C(=O)O)C[C@H](O)[C@@H](NC(C)=O)[C@H]([C@H](O)[C@H](O)CO)O3)[C@@H](O)[C@H](O[C@H]3[C@H](O)[C@@H](O)[C@H](O)O[C@@H]3CO)O[C@@H]2CO)O[C@H](CO)[C@H](O)[C@@H]1O[C@@H]1O[C@H](CO)[C@H](O)[C@H](O)[C@H]1O[C@@H]1O[C@@H](C)[C@@H](O)[C@@H](O)[C@@H]1O [GM1os]
Kd [1]: 5.77e-05 ± 3e-07 mM
Kd (CT [2]): 43 nM

CC(=O)N[C@@H]1[C@@H](O[C@@H]2O[C@@H](C)[C@@H](O)[C@@H](O)[C@@H]2O)[C@H](O[C@@H]2O[C@H](CO)[C@H](O)[C@H](O)[C@H]2O)[C@@H](CO)O[C@H]1O [Le^x triaose]
Kd ([1]; Kd): 8.1 mM and 8 mM
blocking of CTB binding to jejunal epithelial cells [3]: can be blocked

CC(=O)N[C@H]1[C@H](O[C@@H]2[C@H](O[C@]3(C(=O)O)C[C@H](O)[C@@H](NC(C)=O)[C@H]([C@H](O)[C@H](O)CO)O3)[C@@H](O)[C@H](O[C@H]3[C@H](O)[C@@H](O)[C@H](O)O[C@@H]3CO)O[C@@H]2CO)O[C@H](CO)[C@H](O)[C@@H]1O[C@@H]1O[C@H](CO)[C@H](O)[C@H](O)[C@H]1O[C@@H]1O[C@@H](C)[C@@H](O)[C@@H](O)[C@@H]1O [Fucosyl-GM1]
binding to CT relative to GM1 (CT [4]): almost as strongly as GM1

C[C@H](O)[C@@H](O)[C@@H](O)[C@H](O)C=O [L-fucose]
blocking of CTB binding in cell culture [5]: block CTB binding

CC(=O)N[C@H]1[C@H](O[C@@H]2[C@@H](O)[C@H](O)O[C@H](CO)[C@@H]2O)O[C@H](CO)[C@@H](O[C@@H]2O[C@H](CO)[C@H](O)[C@H](O)[C@H]2O)[C@@H]1O[C@@H]1O[C@@H](C)[C@@H](O)[C@@H](O)[C@@H]1O [Le^x tetraose]
Kd ([1]; Kd): 7.7 ± 0.5 mM
